Measured values as given in patent US12486239B2, “Benzotriazole compound, light absorber, and resin composition” (MITSUI CHEMICALS, INC., priority 2019, dated 2025).

Legend:
Format in all cases: physicochemical
[1] = Maximum absorption wavelength and gram absorption coefficient, toluene solution 0.01 g/L (first embodiment); conditions: optical path length 10 mm
Method: The maximum absorption wavelength of the benzotriazole compound of the first embodiment is measured using a spectrophotometer (for example, Shimadzu Spectrophotometer UV-1600 manufactured by Shimadzu Corporation) at an optical path length of 10 mm using a toluene solution having a concentration of 0.01 g/L.
In Examples according to the first embodiment, the maximum absorption wavelength and the gram absorption coefficient of the benzotriazole compound were measured using a Shimadzu Spectrophotometer UV-1600 manufactured by Shimadzu Corporation at an optical path length of 10 mm using a toluene solution having a concentration of 0.01 g/L.

[2] = Heat resistance: TG5% decomposition temperature; conditions: nitrogen atmosphere, heating rate 10° C./min; for T-5% by mass: Table 2; for Decomposition temperature (Tg-5% by mass): Table 6
Method: In each Example and Comparative Example, the decomposition temperature was measured by the following method.
Using a thermal analyzer Rigaku ThermoPlus Evo TG8120, the TG5% decomposition temperature (T-5% by mass) was measured under a nitrogen atmosphere at a heating rate of 10° C./min and a temperature range of from room temperature to 500° C.
The higher the T-5% by mass, the higher the heat resistance.
The decomposition temperature of the benzotriazole compound obtained in each Example and Comparative Example was measured by the following method.

[3] = Solubility to various organic solvents; conditions: room temperature; for Solubility to various organic solvents: PGMEA / Solubility to various organic solvents: Ethyl acetate / Solubility to various organic solvents: MEK / Solubility to various organic solvents: MMA / Solubility to various organic solvents: Toluene: Table 1
Method: As Comparative Example 1, the solubility of TINUVIN326 (manufactured by BASF Japan Ltd.) represented by the following Formula (TI) was measured by the following method.
(§1) To 0.5 g of the benzotriazole compound, the various organic solvents shown in Table 1 were added such that the total mass was about 10 g, the mixture was irradiated with ultrasonic waves for about 30 minutes, and thereafter stirred at room temperature for 2 hours to prepare a dispersion of about 10% by mass.
The dispersion was filtered through a membrane filter (0.2 μm), and the obtained residue was dried in a dryer at 60° C. for 1 hour, and then the mass of the residue was measured.
The solubility of the benzotriazole compound to the solvent was expressed by the following formula. Solubility (% by mass)=(W0−W1)/W0
W0 is the mass of the benzotriazole compound before the treatment, and W1 is the mass of the residue after drying (that is, the dissolution residue of the benzotriazole compound). In a case in which no residue remained on the filter, the solubility was determined as 5% by mass or more.
The solubility of the benzotriazole compound obtained in each Example and Comparative Example was measured by the following method.
as §1, with “Table 6” for “Table 1”

Structure (SMILES)	gram absorption coefficient [1]	maximum absorption [1] [nm]	T-5% by mass [2] [°C]	Solubility to various organic solvents: PGMEA ([3]; PGMEA)	Solubility to various organic solvents: Ethyl acetate ([3]; ethyl acetate) [% by mass]	Solubility to various organic solvents: MEK ([3]; methyl ethyl ketone) [% by mass]	Solubility to various organic solvents: MMA ([3]; methyl methacrylate)	Solubility to various organic solvents: Toluene ([3]; toluene)	further results
CCCCCNc1ccc(-n2nc3ccc(Cl)cc3n2)c(O)c1 [Compound (3)]	9.77×10^4 g/mL·cm	387							
Oc1cc(NC2CCCCC2)ccc1-n1nc2ccc(Cl)cc2n1 [Compound (4)]	9.76×10^4 g/mL·cm	389.5							
CCCCCCC(=O)N(c1ccccc1)c1ccc(-n2nc3ccc(Cl)cc3n2)c(O)c1 [Compound (22)]	6.1×10^4 g/mL·cm	355							
CCCCCCC(=O)Nc1ccc(-n2nc3ccc(Cl)cc3n2)c(O)c1 [Compound (53)]	7.9×10^4 g/mL·cm	359.0	323.5	1 % by mass	1	1	1 % by mass	0.5 % by mass	
CCCCCCCCSc1ccc2nn(-c3ccc(NC(=O)CCCCCC)cc3O)nc2c1 [Compound (54)]	7.10×10^4 g/mL·cm	371.0	359.7	0.3 % by mass	0.3	1	0.5 % by mass	0.3 % by mass	
CCCCCCC(=O)Nc1ccc(-n2nc3ccc(Sc4ccc(C(C)(C)C)cc4)cc3n2)c(O)c1 [Compound (55)]	6.9×10^4 g/mL·cm	371.0	359.4	5 or more % by mass	5	5	5 or more % by mass	2 % by mass	
O=C(Nc1ccc(-n2nc3ccc(Cl)cc3n2)c(O)c1)c1ccccc1 [Compound (61)]	9.37×10^4 g/mL·cm	360.0							
CCN(CC)C(=O)Nc1ccc(-n2nc3ccc(Cl)cc3n2)c(O)c1 [Compound (81)]	1.07×10^5 g/mL·cm	372.5	230.1						
CC(=O)Nc1ccc(-n2nc3ccc(Cl)cc3n2)c(O)c1 [Compound (102)]	5.19×10^4 g/mL·cm	347.0							
O=C(Nc1ccc(-n2nc3ccc(Cl)cc3n2)c(O)c1)C1CCCCC1 [Compound (103)]	8.48×10^4 g/mL·cm	359.0	335.7						
CC(C)(C)c1ccc(CSc2ccc3nn(-c4ccc(NC(=O)C5CCCCC5)cc4O)nc3c2)cc1 [Compound (104)]	6.90×10^4 g/mL·cm	371.0	313.1						
O=C1CCc2cc(-n3nc4ccc(Cl)cc4n3)c(O)cc2N1 [Compound (105)]	7.28×10^4 g/mL·cm	365.5							
Cc1cc(-n2nc3ccc(Cl)cc3n2)c(O)c(C(C)(C)C)c1 [TINUVIN326, 2-(5-chloro-2-benzotriazol)-6-tert-butyl-p-cresol, reference compound]			219.2	1 % by mass	3	3	5 % by mass	5 or more % by mass	Decomposition temperature (Tg-5% by mass) [2]: 219.2 °C; Decomposition temperature (Tg-5% by mass) ([2]; listed as Comparative Example 1C): lower than that of Examples; Solubility: PGMEA ([3]; Table 6, PGMEA): 1 % by mass; Solubility: EA ([3]; Table 6, ethyl acetate): 3 % by mass; Solubility: MEK ([3]; Table 6, methyl ethyl ketone): 3 % by mass; Solubility: MMA ([3]; Table 6, methyl methacrylate): 5 % by mass; Solubility: Toluene ([3]; Table 6, toluene): 5≤ % by mass
